Assay results published in patent US20090259167A1, “METHODS AND COMPOSITIONS FOR DOSE-DEPENDENT PHOTODYNAMIC THERAPY OF DISORDERS” (THE GENERAL HOSPITAL CORPORATION, priority 2008, published 2009).
“Also recorded” adds a separate entry of the source.

Tests used:
skin = experiment: Clinical examination of inflammatory response to ALA-PDT (635 nm red light); assay type: in vivo, Yorkshire swine
Excerpt: (§1) Three female domestic Yorkshire swine weighing 30 to 50 kg were used in the study, which was approved by the MGH Institutional Subcommittee for Research Animal Care. Porcine and human skin have similar histology and physiology, with notable differences. Pigs have smaller sebaceous glands and a thicker dermis. However their thick stratum corneum, lack of fur and metabolism of topical or injected ALA are similar to humans (Meyer 1996), (de Blois, Thissen et al. 2001).
(§2) 5-Aminolevulinic acid hydrochloride from Biosynth International Inc. (Naperville, Ill., USA) was diluted in normal saline (0.9% Sodium Chloride, Hospira, Inc., Illinois, USA) into different concentrations. ALA solutions were titrated in halves from 1.000% to 0.0005%. Osmolarity was not corrected. ALA solution pH varied with concentration from acidic to neutral (1.000%≈pH 1; 0.500%≈pH 3; 0.250 to 0.008%≈pH 5; 0.004 to 0.0005%≈pH 7). Normal saline was used as a control (pH=7). […] In this study, ALA solutions were not buffered because buffering can induce a delay in PpIX formation (Bech et al. 1997). Unbuffered solutions were prepared immediately before intradermal injection. A volume of 0.05-cc/cm^2 skin area was injected at a depth of 2 to 4 mm, using a special 4 mm-long 30 gauge needle (TSK STEiJECT, Toshigi-ken, Japan). The beveled outlet of this needle covers the distal 1 mm near its tip.
(§3) Each animal's flanks were cleansed, clipped of hair, cleansed and rinsed again, dried with a towel, mapped and divided into 4 cm×7 cm rectangular areas for the test spots. Each test area received an injection of a given ALA concentration, with appropriate control sites, which received either no treatments, ALA alone, or light exposure alone. After the ALA injections, the skin surface was wiped clean again. Three hours after ALA administration, each test area was used for repeated measurements of (1) digital fluorescence photography to document the gross distribution of porphyrin synthesis; and (2) 8-mm skin biopsies obtained from at least 2 sites for each condition prior to light exposure, for evaluation of porphyrin distribution by fluorescence microscopy. After the 3-hour-incubation skin biopsies, red light exposures were performed using a 635 nm LED array (Omnilux, Photo Therapeutics, Inc, Cheshire, UK), delivered at 100 mW/cm^2 irradiance. Biopsies were taken from the control sites at the same times as from test sites, to control for the unlikely possibility that the small amount of ALA injected would cause a systemic level sufficient to stimulate remote synthesis of porphyrins. Measurements and biopsies were repeated after 24 hours, prior to euthanasia.
Clinical examination and grading of cutaneous responses were performed before, during and 1 hour after the end of the last red light exposure. This is sufficient time for an acute inflammatory response to develop. The following day, before euthanasia, final clinical evaluation was performed. Inflammatory response was graded from 0 to 3 for each site, where 0 represents no reaction; 1, mild (any redness or edema); 2, moderate (prominent redness and/or edema) and 3, severe reaction (signs of necrosis, blistering, purpura).

[1] = pH and stability of ALA solutions; assay type: physicochemical; conditions: unbuffered
Protocol: as §2

[2] = test system: porphyrin accumulation in skin; experiment: Digital fluorescence gross photography of porphyrin accumulation after intradermal ALA; assay type: in vivo, Yorkshire swine
Excerpt: as §1, §2
For each concentration, 12 repetitions were performed for statistical validation. One centimeter separated each site of application from others at the same concentration. After ALA administration, the skin was occluded with plastic sheeting (Saran wrap) and covered with aluminum foil, to avoid light exposure during a 3-hour period for ALA metabolism.
as §3
Fluorescence photography was performed using a 420 nm bandwidth excitation filter, and >600 nm long pass emission filter mounted on a digital camera (Nikon D70, Nikon Corporation, Tokyo, Japan) with fixed-focus and fixed-field with 10 cm field of view. A fluorescent tape (Small Flags—Pink, Redi-Tag Corporation, Cypress, Calif., USA) was attached to the fixed-field area to compare the fluorescence produced from the skin. Fluorescence photography was performed at baseline, after 3 hours of incubation, immediately after red light exposure, and 24 hours after the application of the drug for each ALA application and control test sites.
Every gross fluorescent photograph was analyzed using the WCIF—Image J 1.37c software—Wayne Rasband National Institutes of Health, USA. In this software, pixel analysis is transformed into numeric values. […]

[3] = depending on the pH and the concentration of the solution; cited from earlier work
[4] = test system: porphyrin accumulation in cutaneous structures; experiment: Fluorescence microscopy of fresh-frozen skin biopsies for porphyrin (PpIX) distribution; assay type: in vivo, Yorkshire swine
Excerpt: as §1, §2, §3
(§4) From each experimental skin area, a series 8 mm punch biopsies were taken and immediately split vertically in half with a razor blade. For each biopsy, half was prepared as a fresh-frozen specimen to localize the PpIX accumulation by fluorescence microscopy. The other half was processed for routine hematoxylin-eosin (H&E) staining. At baseline (B0), after 3 hours of incubation (B1), and after 24 hours (B2) a biopsy was performed in each area. Biopsies for fluorescence microscopy were also taken from sites receiving light exposure, just after the light was administered. Frozen sections were cut into 15 μm thick samples and observed using fluorescence microscopy Zeiss Axiophot, Carls Zeiss MicroImaging GmbH, Gottinger, Germany at 10× magnification; samples were also imaged by confocal microscopy (True Confocal Scanner—Leica TCSNT, Leica Mikroscopie und Systeme GmbH, Heidelberg, Germany) at 40× magnification. Routine H&E histology was performed to analyze PDT effect within the skin structures. Biopsy sites were separated from each other by at least 1 cm. […]

skin structures = experiment: Histopathology (H&E) of skin structures 24 hours after ALA-PDT; assay type: in vivo, Yorkshire swine
Excerpt: as §1, §2, §3, §4

[5] = 0.5% injected ALA-PDT, 24 hours

## Cl.NCC(=O)CCC(=O)O [ALA, 5-Aminolevulinic acid hydrochloride]
skin; 24 hours after PDT
  lowest injected ALA concentration with clinical reaction (mild erythema): 0.016%
skin; all sites
  Nikolski sign: negative
skin; injected ALA 0.0005% (lowest concentration)
  clinical response after light exposure: no significant clinical residuum
skin; injected ALA 0.25%-1.00%, necrosis generally after 24 hours
  clinical response after PDT: extensive purpura with skin necrosis
skin; injected ALA and light exposure, after 24 hours
  gross skin reaction: much more uniform gross skin reaction
skin; injected ALA from 0.016% to 1.0%
  clinical response during red light irradiation: intense vasospasm
skin; injected ALA less or equal to 0.016%, light 3 hours after injection
  clinical response after light exposure: only erythematous macules near each injection puncture site
skin; intradermal injection, 3-hour incubation
  reaction to ALA injection before light exposure: mild transient “bleb” papule
skin; topical 20% ALA and light exposure, after 24 hours
  skin response: non-uniform skin response, with much greater inflammation around hair follicles
[1]; 0.004 to 0.0005% ALA in normal saline
  ALA solution pH: ~7
[1]; 0.250 to 0.008% ALA in normal saline
  ALA solution pH: ~5
[1]; 0.500% ALA in normal saline
  ALA solution pH: ~3
[1]; 1.000% ALA in normal saline
  ALA solution pH: ~1
[2]; 2-4 mm deep injected ALA lower than 0.0005%
  porphyrin accumulation by gross fluorescence: low but detectable level of porphyrin accumulation
[2]; 3 hours after intradermal administration, solutions 1.0% to 0.0005%
  lowest injected ALA concentration with positive fluorescence in photographs: 0.004%
[2]; 3 hours incubation
  lowest injected ALA concentration with statistically significantly increased fluorescence vs uninjected control sites (pixel value analysis): 0.004%
[2]; ALA less than or equal to 0.002%, p≦2×10^−5
  fluorescence compared to control and light only sites: significant fluorescence
[2]; all sites, 635 nm
  fluorescence immediately after red light PDT: no fluorescence
[2]; injected ALA greater than 0.002%
  porphyrin accumulation by gross fluorescence: dose-dependent porphyrin accumulation
[3]
  stability of aqueous solutions: unstable over long periods
[4]; down to and including
  lowest injected ALA concentration inducing porphyrin accumulation: 0.0005%
[4]; in vivo
  injected ALA concentration at which epithelial skin structures (hair follicles, sebaceous glands, epidermis) showed fluorescence: ≥ 0.25%
[4]; injected ALA 0.0005%
  subcutaneous fat fluorescence: present
[4]; injected ALA 0.50%
  vessel fluorescence: Some vessels also fluoresced
[4]; injected ALA 1.0% and 0.5%, prior to light
  epidermal fluorescence: Full thickness epidermal fluorescence
[4]; injected ALA 1% to 0.03%
  fluorescence of superficial and deep hair follicles: mostly present
[4]; injected ALA below 0.06%
  epidermal fluorescence: negative
  stratum corneum fluorescence: positive fluorescence
[4]; injected ALA ≦0.002%, 2-4 mm deep
  localisation of porphyrin fluorescence: limited to the area where the drug was injected
[4]; injected ALA ≧0.03%
  eccrine gland porphyrin fluorescence: strong porphyrin fluorescence
[4]; injected ALA, all concentrations tested, fading with dilution
  superficial fat fluorescence: strong fluorescence
[4]; injected, prior to light
  lowest ALA concentration with sebaceous gland fluorescence: 0.50%
[4]; injected, less intense but still positive
  lowest ALA concentration with positive eccrine gland fluorescence: 0.005%
Skin structures; 0.002% injected ALA-PDT
  fat septae damage: Massive fat septae necrosis
Skin structures; 0.5% injected ALA-PDT
  damage to hair follicle, adnexal glands and fat: Non-selective destruction
Skin structures; [5]
  epidermis changes: no relevant changes
  superficial vessel findings: superficial vessel inflammation with blood stagnation
Skin structures; all ALA concentrations, more so 1% to 0.06%
  eccrine gland damage: Massive eccrine gland necrosis
Skin structures; all injected ALA concentrations
  fat damage: observed with all concentrations
Skin structures; all samples, 24 hours after PDT
  epidermis reaction: little or no reaction
Skin structures; injected ALA 0.0005% (most diluted)
  vascular destruction in deep vessels of the fat septae: maximal vascular destruction
Skin structures; injected ALA 0.0005-0.016%
  fat damage intensity: more intense
Skin structures; injected ALA 0.016 to 0.0005% (≦0.016%), 2-4 mm deep, hydrochloride
  fat effect at very low concentrations: localized fat necrosis without clinical evidence of inflammation; also recorded: targeted fat and deep vessels without clinical inflammation
Skin structures; injected ALA 0.06%
  superficial fat inflammation: mild inflammation
Skin structures; injected ALA 0.06%, hydrochloride
  eccrine gland selectivity of damage: selective destruction of some eccrine glands; also recorded: Selective eccrine gland damage; also recorded: selectively targeted eccrine glands; also recorded: Selective reaction of eccrine glands
Skin structures; injected ALA 0.25-1.00%, 24 hours after PDT
  vascular findings in superficial and deep vessels: extensive perivascular and vascular mixed inflammatory cell infiltrates
Skin structures; injected ALA ≧0.25% with high fluence red light
  vascular PDT reaction: potent vascular PDT reaction
Skin structures; injected ALA-PDT
  apocrine gland damage: signs of some preferential damage
Skin structures; mainly injected ALA 1%-0.016%
  perifollicular inflammation: mild perifollicular inflammation
